Data from ChEMBL document CHEMBL1141623 (Bioorg Med Chem Lett, 2008).

Tests used:
[1] = Stability in human liver S9 fraction after 60 mins; format: ADME, subcellular; details: read-out: Stability
[2] = molecular target: Sodium-dependent serotonin transporter (Homo sapiens, UniProt P31645); experiment: Inhibition of SERT mediated 5-hydroxytryptamine uptake
Mu-type opioid receptor = Mu-type opioid receptor (Homo sapiens, UniProt P35372); experiment: Binding affinity to mu opioid receptor
[3] = Stability in human liver microsome after 60 mins; format: ADME; details: liver microsomes, read-out: Stability
[4] = Stability in rat liver S9 fraction after 60 mins; format: ADME, subcellular; details: read-out: Stability
[5] = molecular target: Sodium-dependent noradrenaline transporter (Homo sapiens, UniProt P23975); experiment: Inhibition of NET mediated norepinephrine uptake
[6] = Stability in rat liver microsome after 60 mins; format: ADME; details: liver microsomes, read-out: Stability
Rattus norvegicus [7] = experiment: Analgesic activity in iv dosed Sprague-Dawley rat by tail-flick model of pain; format: functional
Rattus norvegicus [8] = experiment: Analgesic activity in iv dosed Sprague-Dawley rat assessed as duration of effect by tail-flick model of pain; format: functional
Rattus norvegicus [9] = experiment: Toxicity in iv dosed Sprague-Dawley rat; format: organism-based; details: in vivo
[10] = Bioavailability in […] dosed Sprague-Dawley rat; format: ADME, organism-based; details: in vivo

Chain of Sodium-dependent noradrenaline transporter (P23975 whole entry): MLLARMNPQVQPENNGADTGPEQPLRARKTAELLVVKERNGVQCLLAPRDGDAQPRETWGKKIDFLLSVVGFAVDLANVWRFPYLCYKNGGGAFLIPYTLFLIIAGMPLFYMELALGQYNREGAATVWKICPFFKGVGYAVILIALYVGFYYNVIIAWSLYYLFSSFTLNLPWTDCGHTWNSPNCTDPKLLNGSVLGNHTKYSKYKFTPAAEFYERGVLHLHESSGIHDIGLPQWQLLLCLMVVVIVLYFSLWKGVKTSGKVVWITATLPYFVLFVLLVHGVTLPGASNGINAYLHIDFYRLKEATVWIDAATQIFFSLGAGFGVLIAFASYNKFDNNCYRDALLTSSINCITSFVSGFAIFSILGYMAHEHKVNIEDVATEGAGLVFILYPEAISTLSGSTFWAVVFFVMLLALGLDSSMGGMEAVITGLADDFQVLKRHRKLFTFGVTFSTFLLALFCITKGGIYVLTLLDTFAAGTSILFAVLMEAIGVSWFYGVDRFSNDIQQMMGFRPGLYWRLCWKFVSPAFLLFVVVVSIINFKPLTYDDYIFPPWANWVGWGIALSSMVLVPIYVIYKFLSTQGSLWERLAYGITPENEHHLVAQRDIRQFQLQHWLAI
Chain of Mu-type opioid receptor (P35372 whole entry): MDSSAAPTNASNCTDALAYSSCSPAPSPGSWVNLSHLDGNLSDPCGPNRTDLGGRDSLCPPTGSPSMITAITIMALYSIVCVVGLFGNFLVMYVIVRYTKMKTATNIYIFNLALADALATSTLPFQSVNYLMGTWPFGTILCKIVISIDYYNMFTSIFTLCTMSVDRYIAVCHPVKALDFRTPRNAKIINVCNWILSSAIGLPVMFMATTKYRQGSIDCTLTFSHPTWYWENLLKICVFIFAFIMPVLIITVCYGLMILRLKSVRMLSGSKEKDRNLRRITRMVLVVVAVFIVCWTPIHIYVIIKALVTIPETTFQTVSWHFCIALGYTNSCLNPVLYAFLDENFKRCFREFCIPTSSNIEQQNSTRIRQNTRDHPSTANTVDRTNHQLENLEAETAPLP
Chain of Sodium-dependent serotonin transporter (P31645 whole entry): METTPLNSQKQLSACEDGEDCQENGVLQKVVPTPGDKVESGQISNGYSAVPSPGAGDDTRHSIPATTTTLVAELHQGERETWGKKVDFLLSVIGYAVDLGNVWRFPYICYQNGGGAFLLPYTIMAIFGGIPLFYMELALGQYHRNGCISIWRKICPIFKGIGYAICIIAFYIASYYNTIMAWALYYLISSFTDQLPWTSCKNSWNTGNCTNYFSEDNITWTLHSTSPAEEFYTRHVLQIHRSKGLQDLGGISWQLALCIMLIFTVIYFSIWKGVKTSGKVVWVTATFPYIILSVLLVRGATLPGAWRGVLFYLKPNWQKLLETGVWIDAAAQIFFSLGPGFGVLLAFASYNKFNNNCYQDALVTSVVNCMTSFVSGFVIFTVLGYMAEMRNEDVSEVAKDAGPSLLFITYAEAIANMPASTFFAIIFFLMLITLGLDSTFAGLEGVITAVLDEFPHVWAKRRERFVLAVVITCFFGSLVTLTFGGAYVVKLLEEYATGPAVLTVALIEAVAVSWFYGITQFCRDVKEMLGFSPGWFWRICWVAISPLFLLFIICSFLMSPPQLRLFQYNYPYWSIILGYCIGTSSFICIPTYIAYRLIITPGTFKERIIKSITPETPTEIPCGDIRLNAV

Row | SMILES | remaining at 1 h [1] [%] | IC50 [2] [µM] | IC50 (Mu-type opioid receptor) [µM] | remaining at 1 h [3] [%] | remaining at 1 h [4] [%] | IC50 [5] [µM] | remaining at 1 h [6] [%] | ED50 (Rattus norvegicus [7]) [mg/kg] | Time (Rattus norvegicus [8]) [min] | Activity (Rattus norvegicus [9]) | bioavailability [10] [%]
1 | CO[C@]1(c2cccc(C#N)c2)CCCC[C@@H]1CN(C)C | 94 | 6.24 | > 10 | 89 | 83 | 4.49 | 69 |  |  |  | 
2 | CN(C)C[C@H]1CCCC[C@]1(OCC1CC1)c1cccc(O)c1 |  | 3.67 | 0.13 |  |  | > 10 |  |  |  |  | 
3 | CNC[C@@H]1CCCC[C@@]1(OC)c1cccc(OC)c1 |  |  | > 10 |  |  | 0.898 |  | 3.1 | 27 |  | 
4 | CCCO[C@]1(c2cccc(OC)c2)CCCC[C@@H]1CN(C)C |  | 0.025 | 7.9 |  |  | 3.87 |  |  |  |  | 
5 | CNC[C@H]1CCCC[C@]1(OC)c1cccc(OC)c1 |  |  | > 10 |  |  | > 10 |  |  |  | Toxic | 
6 | COc1cccc([C@@]2(OCCCO)CCCC[C@@H]2CN(C)C)c1 |  | 1.49 | 8 |  |  | 3.86 |  |  |  |  | 
7 | CN(C)C[C@H]1CCCC[C@]1(OCCO)c1cccc(O)c1 |  | 1.5 | 0.19 |  |  | 5.95 |  |  |  |  | 
8 | COc1cccc([C@@]2(OCCO)CCCC[C@@H]2CN(C)C)c1 |  | > 10 | > 10 |  |  | > 10 |  |  |  |  | 
9 | CCCCO[C@]1(c2cccc(OC)c2)CCCC[C@@H]1CN(C)C | 10 | 0.11 | 6.49 | 9 | 4 | 6.69 | 3 |  |  |  | 
10 | CO[C@@]1(c2ccccc2)CCCC[C@H]1CN(C)C |  | 3.88 | > 10 |  |  | 1.56 |  | 3.3 | 13 |  | 
11 | CCCCO[C@]1(c2cccc(O)c2)CCCC[C@@H]1CN(C)C |  | 2.74 | 0.097 |  |  | > 10 |  |  |  |  | 
12 | CO[C@]1(c2cccc(O)c2)CCCC[C@@H]1CN(C)C | 98 | 10 | 0.056 | 104 | 74 | 0.525 | 88 |  |  |  | 
13 | CCCO[C@]1(c2cccc(O)c2)CCCC[C@@H]1CN(C)C |  | 2.8 | 0.19 |  |  | 6.25 |  |  |  |  | 
14 | CCO[C@]1(c2cccc(O)c2)CCCC[C@@H]1CN(C)C |  | 1.42 | 0.13 |  |  | 3.78 |  |  |  |  | 
15 | CCO[C@]1(c2cccc(OC)c2)CCCC[C@@H]1CN(C)C |  | 0.181 | > 10 |  |  | 1.01 |  |  |  |  | 
16 | COc1cccc([C@@]2(OCC3CC3)CCCC[C@@H]2CN(C)C)c1 | 35 | 0.025 | 7.67 | 29 | 6 | 3.78 | 3 |  |  |  | 
17 | CNC[C@@H]1CCCC[C@@]1(OC)c1cccc(O)c1 |  | 1.05 | 0.084 |  |  | 9 |  |  |  |  | 
18 | CNCC1CCCCC1(OC)c1cccc(OC)c1 (racemic) | 76 |  | > 10 | 77 | 26 | 3.87 | 31 | 2.9 |  |  | 
19 | COc1cccc([C@@]2(OC)CCCC[C@@H]2CN(C)C)c1 (racemic) | 85 |  | 7.87 | 82 | 12 | 0.161 | 17 | 0.7 | 20 |  | 11
20 | CN(C)C[C@H]1CCCC[C@]1(O)c1cccc(O)c1 (racemic) [O-DESMETHYL TRAMADOL] |  |  |  |  |  | > 10 |  |  | 2 |  | 
21 | COc1cccc(C2(O)CCCCC2CN(C)C)c1 (racemic) [TRAMADOL] | 95 |  |  | 96 | 56 | 3.86 | 58 | 11.3 | 69 |  | 36
22 | CO[C@]1(c2ccccc2)CCCC[C@@H]1CN(C)C (stereo in doubt; 14) | 101 | 2.53 | 4.75 | 96 | 61 | 3.79 | 56 |  |  |  | 
23 | CNC[C@H]1CCCC[C@]1(OC)c1cccc(O)c1 (stereo in doubt; 23) | 108 | 6.92 | 0.122 | 103 | 82 | 2.25 | 86 |  |  |  | 
24 | CNC[C@H]1CCCC[C@]1(OC)c1cccc(O)c1 (stereo in doubt; 26) |  | 5.26 | 0.048 |  |  | > 10 |  |  |  |  | 
25 | CO[C@]1(c2ccccc2)CCCC[C@@H]1CN(C)C (stereo in doubt; 28) |  | 2.96 | 2.59 |  |  | 1.52 |  |  |  | Toxic | 
